The results in this text go back to patent publication US8263606B2 (Xenon Pharmaceuticals Inc., priority 2008, dated 2012).

As a reminder, the pIC50 is the negative decadic logarithm of the IC50, by convention in mol/L. In general, melting point refers to the temperature, or range, at which the solid turns liquid. As a reminder, the inhibition is the drop in the measured response relative to a control, in per cent.

pIC50: −log10 of the molar value.

One series has as its system sodium channel. In words: Guanidine influx assay (14C-guanidine radiotracer flux, in vitro). The class given is cell-based, human or rat. To be noted: guanidine influx assay using a known cell line that expresses a sodium channel. Put shortly: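 Sodium channel block is measured as reduced 14C-guanidine uptake in cells stably expressing human or rat channels, stimulated with aconitine. Potency is given as IC50 from a four-parameter curve.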

For another series, the target named is CYP3A4 (Homo sapiens, UniProt P08684). Kind of series: Cytochrome P450 (CYP450) Inhibition Assay, CYP3A4 (Vivid fluorescence, BOMCC substrate). The settings on record: human, P450 Baculosomes (recombinant CYP3A4), probe BOMCC (Vivid substrate).
CYP3A4, sequence (P08684 whole entry): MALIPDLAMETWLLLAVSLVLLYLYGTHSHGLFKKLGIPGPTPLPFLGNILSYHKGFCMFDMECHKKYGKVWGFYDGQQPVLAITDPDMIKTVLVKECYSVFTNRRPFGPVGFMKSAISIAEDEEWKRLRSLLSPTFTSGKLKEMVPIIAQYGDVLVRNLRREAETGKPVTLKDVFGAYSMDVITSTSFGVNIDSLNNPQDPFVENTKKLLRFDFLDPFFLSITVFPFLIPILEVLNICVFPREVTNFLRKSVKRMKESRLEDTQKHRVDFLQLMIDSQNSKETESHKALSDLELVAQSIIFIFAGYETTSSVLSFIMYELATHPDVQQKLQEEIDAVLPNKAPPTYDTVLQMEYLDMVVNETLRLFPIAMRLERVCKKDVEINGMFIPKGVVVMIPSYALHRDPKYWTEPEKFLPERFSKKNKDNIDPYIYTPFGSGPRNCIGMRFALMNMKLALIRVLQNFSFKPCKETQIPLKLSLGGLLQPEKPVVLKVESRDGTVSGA

Molecule `Cl.O=C1N(CC2CCNCC2)c2ccccc2C12COc1cc(F)c(F)cc12` (stereo not drawn) [Example 11.111, 5,6-difluoro-1′-(piperidin-4-ylmethyl)spiro[1-benzofuran-3,3′-indol]-2′(1′H)-one hydrochloride] registered a melting point of over 200 °C. The negative-log IC50 (pIC50) in the series with sodium channel is 7.00 to 9.00. The inhibition at 10 µM at CYP3A4 was over 50%.

The molecule `COCCNC(=O)c1cccc(CN2C(=O)C3(COc4cc5c(cc43)CCO5)c3ccccc32)c1` (stereo not drawn) [Example 12.1, N-(2-methoxyethyl)-3-[(2′-oxo-5,6-dihydrospiro[benzo[1,2-b:5,4-b′]difuran-3,3′-indol]-1′(2′H)-yl)methyl]benzamide] returned a melting point of 72 to 73 °C. The pIC50 with sodium channel is 6.00 to 7.00. For the same molecule, the inhibition at 10 µM on CYP3A4 was over 50%.

As to `CCCCCCN(C)C(=O)c1cccc(CN2C(=O)C3(COc4cc5c(cc43)CCO5)c3ccccc32)c1` (stereo not drawn) [Example 12.2, N-hexyl-N-methyl-3-[(2′-oxo-5,6-dihydrospiro[benzo[1,2-b:5,4-b′]difuran-3,3′-indol]-1′(2′H)-yl)methyl]benzamide], the melting point fell in the range of 73 to 74 °C. The pIC50 in the series on sodium channel was 6.00 to 7.00. The inhibition at 10 µM on CYP3A4 is over 50%.

`CCC(CC)CNC(=O)c1cccc(CN2C(=O)C3(COc4cc5c(cc43)CCO5)c3ccccc32)c1` (stereo not drawn) [Example 12.3, N-(2-ethylbutyl)-3-[(2′-oxo-5,6-dihydrospiro[benzo[1,2-b:5,4-b′]difuran-3,3′-indol]-1′(2′H)-yl)methyl]benzamide] had a melting point of 105 to 106 °C. The negative-log IC50 (pIC50) in the series with sodium channel was 6.00 to 7.00. On CYP3A4, the inhibition at 10 µM was over 50%.

For `Cc1ccc(NC(=O)c2cccc(CN3C(=O)C4(COc5cc6c(cc54)CCO6)c4ccccc43)c2)c(C)c1` (stereo not drawn) [Example 12.4, N-(2,4-dimethylphenyl)-3-[(2′-oxo-5,6-dihydrospiro[benzo[1,2-b:5,4-b′]difuran-3,3′-indol]-1′(2′H)-yl)methyl]benzamide], the melting point was in the range of 234 to 235 °C. Further, the negative logarithm of the IC50 (pIC50) in the series on sodium channel is 6.00 to 7.00. The inhibition at 10 µM at CYP3A4 was over 50%.

The molecule `CCc1ccc(NC(=O)c2ccccc2CN2C(=O)C3(COc4cc5c(cc43)CCO5)c3ccccc32)cc1` (stereo not drawn) [Example 12.8, N-(4-ethylphenyl)-2-[(2′-oxo-5,6-dihydrospiro[benzo[1,2-b:5,4-b′]difuran-3,3′-indol]-1′(2′H)-yl)methyl]benzamide] registered a melting point of over 230 °C. In addition, the pIC50 with sodium channel is at most 5.00. Also, the inhibition at 10 µM at CYP3A4 is under 50%.

Consider `CCc1ccccc1NC(=O)c1ccccc1CN1C(=O)C2(COc3cc4c(cc32)CCO4)c2ccccc21` (stereo not drawn) [Example 12.9, N-(2-ethylphenyl)-2-[(2′-oxo-5,6-dihydrospiro[benzo[1,2-b:5,4-b′]difuran-3,3′-indol]-1′(2′H)-yl)methyl]benzamide], for which the melting point lay within 184 to 186 °C. Besides, the pIC50 with sodium channel was 5.00 to 6.00. The inhibition at 10 µM at CYP3A4 was over 50%.

On to `Cc1ccc(NC(=O)c2ccccc2CN2C(=O)C3(COc4cc5c(cc43)CCO5)c3ccccc32)c(C)c1` (stereo not drawn) [Example 12.10, N-(2,4-dimethylphenyl)-2-[(2′-oxo-5,6-dihydrospiro[benzo[1,2-b:5,4-b′]difuran-3,3′-indol]-1′(2′H)-yl)methyl]benzamide], for which the melting point fell in the range of 207 to 208 °C. Further, the pIC50 with sodium channel was 5.00 to 6.00. Moreover, the inhibition at 10 µM at CYP3A4 was over 50%.

For `COc1ccccc1NC(=O)c1ccccc1CN1C(=O)C2(COc3cc4c(cc32)CCO4)c2ccccc21` (stereo not drawn) [Example 12.11, N-(2-methoxyphenyl)-2-[(2′-oxo-5,6-dihydrospiro[benzo[1,2-b:5,4-b′]difuran-3,3′-indol]-1′(2′H)-yl)methyl]benzamide], the melting point lay in the range of 172 to 174 °C. The pIC50 in the series with sodium channel was 5.00 to 6.00. Moreover, the inhibition at 10 µM on CYP3A4 is over 50%.

In the case of `O=C(Nc1ccccc1F)c1ccccc1CN1C(=O)C2(COc3cc4c(cc32)CCO4)c2ccccc21` (stereo not drawn) [Example 12.12, N-(2-fluorophenyl)-2-[(2′-oxo-5,6-dihydrospiro[benzo[1,2-b:5,4-b′]difuran-3,3′-indol]-1′(2′H)-yl)methyl]benzamide], the melting point lay in the range of 195 to 197 °C. The pIC50 in the series on sodium channel was 6.00 to 7.00. Moreover, at CYP3A4, the inhibition at 10 µM is over 50%.

The molecule `O=C(Nc1cccc(Cl)c1)c1ccccc1CN1C(=O)C2(COc3cc4c(cc32)CCO4)c2ccccc21` (stereo not drawn) [Example 12.13, N-(3-chlorophenyl)-2-[(2′-oxo-5,6-dihydrospiro[benzo[1,2-b:5,4-b′]difuran-3,3′-indol]-1′(2′H)-yl)methyl]benzamide] gave a melting point of over 230 °C. Moreover, the pIC50 in the series on sodium channel was 5.00 to 6.00. Moreover, the inhibition at 10 µM at CYP3A4 was over 50%.

The molecule `Cc1c(F)cccc1NC(=O)c1ccccc1CN1C(=O)C2(COc3cc4c(cc32)CCO4)c2ccccc21` (stereo not drawn) [Example 12.14, N-(3-fluoro-2-methylphenyl)-2-[(2′-oxo-5,6-dihydrospiro[benzo[1,2-b:5,4-b′]difuran-3,3′-indol]-1′(2′H)-yl)methyl]benzamide] had a melting point of over 230 °C. The negative logarithm of the IC50 (pIC50) with sodium channel is 6.00 to 7.00. Moreover, the inhibition at 10 µM on CYP3A4 is over 50%.

For `CCCCCCCNC(=O)c1ccccc1CN1C(=O)C2(COc3cc4c(cc32)CCO4)c2ccccc21` (stereo not drawn) [Example 12.15, N-heptyl-2-[(2′-oxo-5,6-dihydrospiro[benzo[1,2-b:5,4-b′]difuran-3,3′-indol]-1′(2′H)-yl)methyl]benzamide], the melting point lay within 196 to 198 °C. Moreover, the negative logarithm of the IC50 (pIC50) in the series on sodium channel is 5.00 to 6.00. At CYP3A4, the inhibition at 10 µM was over 50%.

In turn, `O=C(NCc1ccccc1Cl)c1ccccc1CN1C(=O)C2(COc3cc4c(cc32)CCO4)c2ccccc21` (stereo not drawn) [Example 12.16, N-(2-chlorobenzyl)-2-[(2′-oxo-5,6-dihydrospiro[benzo[1,2-b:5,4-b′]difuran-3,3′-indol]-1′(2′H)-yl)methyl]benzamide] gave a melting point of 148 to 150 °C. In addition, the pIC50 in the series on sodium channel was 6.00 to 7.00. On CYP3A4, the inhibition at 10 µM was over 50%.

In the case of `O=C(c1ccccc1CN1C(=O)C2(COc3cc4c(cc32)CCO4)c2ccccc21)N1CCCCC1` (stereo not drawn) [Example 12.17, 1′-[2-(piperidin-1-ylcarbonyl)benzyl]-5,6-dihydrospiro[benzo[1,2-b:5,4-b′]difuran-3,3′-indol]-2′(1′H)-one], the melting point lay in the range of 168 to 170 °C. Also, the negative logarithm of the IC50 (pIC50) in the series on sodium channel is 5.00 to 6.00. The inhibition at 10 µM at CYP3A4 is over 50%.

For `CCCCNC(=O)c1ccccc1CN1C(=O)C2(COc3cc4c(cc32)CCO4)c2ccccc21` (stereo not drawn) [Example 12.18, N-butyl-2-[(2′-oxo-5,6-dihydrospiro[benzo[1,2-b:5,4-b′]difuran-3,3′-indol]-1′(2′H)-yl)methyl]benzamide], the melting point was 176 to 178 °C. For the same molecule, the pIC50 in the series on sodium channel was 5.00 to 6.00. The inhibition at 10 µM at CYP3A4 was over 50%.

The molecule `Cc1cccc(NC(=O)c2ccccc2CN2C(=O)C3(COc4cc5c(cc43)CCO5)c3ccccc32)c1` (stereo not drawn) [Example 12.19, N-(3-methylphenyl)-2-[(2′-oxo-5,6-dihydrospiro[benzo[1,2-b:5,4-b′]difuran-3,3′-indol]-1′(2′H)-yl)methyl]benzamide] registered a melting point of 229 to 231 °C. In the series with sodium channel, the pIC50 was 5.00 to 6.00. Further, the inhibition at 10 µM at CYP3A4 is over 50%.

`Cc1ccc(F)c(NC(=O)c2ccccc2CN2C(=O)C3(COc4cc5c(cc43)CCO5)c3ccccc32)c1` (stereo not drawn) [Example 12.20, N-(2-fluoro-5-methylphenyl)-2-[(2′-oxo-5,6-dihydrospiro[benzo[1,2-b:5,4-b′]difuran-3,3′-indol]-1′(2′H)-yl)methyl]benzamide] displayed a melting point of 214 to 216 °C. Also, the negative-log IC50 (pIC50) with sodium channel is 5.00 to 6.00. Further, the inhibition at 10 µM on CYP3A4 was over 50%.

The molecule `Cc1cccc(NC(=O)c2ccccc2CN2C(=O)C3(COc4cc5c(cc43)CCO5)c3ccccc32)c1C` (stereo not drawn) [Example 12.21, N-(2,3-dimethylphenyl)-2-[(2′-oxo-5,6-dihydrospiro[benzo[1,2-b:5,4-b′]difuran-3,3′-indol]-1′(2′H)-yl)methyl]benzamide] came in with a melting point of over 230 °C. Besides, in the series on sodium channel, the negative logarithm of the IC50 (pIC50) was 5.00 to 6.00. The inhibition at 10 µM on CYP3A4 is over 50%.

In turn, `CCc1ccccc1NC(=O)c1ccc(CN2C(=O)C3(COc4cc5c(cc43)CCO5)c3ccccc32)cc1` (stereo not drawn) [Example 12.34, N-(2-ethylphenyl)-4-[(2′-oxo-5,6-dihydrospiro[benzo[1,2-b:5,4-b′]difuran-3,3′-indol]-1′(2′H)-yl)methyl]benzamide] registered a melting point of 203 to 204 °C. The negative-log IC50 (pIC50) with sodium channel was 5.00 to 6.00. Further, the inhibition at 10 µM at CYP3A4 was over 50%.

Molecule `Cc1cccc(C)c1NC(=O)c1ccc(CN2C(=O)C3(COc4cc5c(cc43)CCO5)c3ccccc32)cc1` (stereo not drawn) [Example 12.35, N-(2,6-dimethylphenyl)-4-[(2′-oxo-5,6-dihydrospiro[benzo[1,2-b:5,4-b′]difuran-3,3′-indol]-1′(2′H)-yl)methyl]benzamide] came in with a melting point of over 250 °C. Moreover, in the series with sodium channel, the pIC50 was 5.00 to 6.00. Moreover, the inhibition at 10 µM at CYP3A4 is over 50%.

On to `O=C(Nc1cccc(F)c1)c1ccc(CN2C(=O)C3(COc4cc5c(cc43)CCO5)c3ccccc32)cc1` (stereo not drawn) [Example 12.36, N-(3-fluorophenyl)-4-[(2′-oxo-5,6-dihydrospiro[benzo[1,2-b:5,4-b′]difuran-3,3′-indol]-1′(2′H)-yl)methyl]benzamide], for which the melting point is over 250 °C. Also, in the series with sodium channel, the pIC50 was 6.00 to 7.00. Moreover, the inhibition at 10 µM on CYP3A4 was under 50%.

`Cc1ccc(NC(=O)c2ccc(CN3C(=O)C4(COc5cc6c(cc54)CCO6)c4ccccc43)cc2)c(C)c1` (stereo not drawn) [Example 12.37, N-(2,4-dimethylphenyl)-4-[(2′-oxo-5,6-dihydrospiro[benzo[1,2-b:5,4-b′]difuran-3,3′-indol]-1′(2′H)-yl)methyl]benzamide] returned a melting point of 249 to 251 °C. Besides, the pIC50 in the series with sodium channel is 6.00 to 7.00. Besides, the inhibition at 10 µM at CYP3A4 is under 50%.
